According to ChEMBL document CHEMBL1126818, “Isosteric replacement in a series of -substituted monophosphonate calcium antagonists” (Bioorg Med Chem Lett, 1993):

How the values were obtained:
[1] = The compound was tested in vitro for its ability to displace [3H]PN-200-110 from Calcium Channel in rat brain membranes.; type: cell membranes
Rattus norvegicus = organism: Rattus norvegicus; assay: Inhibition of contractions induced by K+ depolarization in rat dorsal aorta; type: functional
[2] = The compound was tested in vitro for its ability to displace [3H]PN-200-110 from rat brain membranes; type: tissue-based, Membrane

| SMILES | Ki [1] | Kb (Rattus norvegicus) | Ki [2] |
| --- | --- | --- | --- |
| CCCCNC(=O)NC(CCc1ccccc1)CP(=O)(OCCCC)OCCCC (configuration not stated) | > 1000 nM | 129 nM | – |
| CCCCNC(=O)OC(CCc1ccccc1)CP(=O)(OCCCC)OCCCC (configuration not stated) | > 1000 nM | 38 nM | – |
| CCCCOC(=O)NC(CCc1ccccc1)CP(=O)(OCCCC)OCCCC (configuration not stated) | > 1000 nM | 122 nM | – |
| CCCCCC(=O)OC(Cc1ccccc1)CP(=O)(OCCCC)OCCCC (configuration not stated) | 560 nM | 211 nM | – |
| CCCCOP(=O)(CC(CCc1ccccc1)NP(=O)(OCC)OCC)OCCCC (configuration not stated) | > 1000 nM | 62 nM | – |
| CCCCOP(=O)(CC(CCc1ccccc1)OC(=O)C(C)(C)C)OCCCC (configuration not stated) | > 1000 nM | 105 nM | – |
| CCCCCC(=O)OC(CCc1ccccc1)CP(=O)(OCCCC)OCCCC (configuration not stated) | 51 nM | 6.6 nM | – |
| CCCCOP(=O)(CC(CCc1ccccc1)NS(=O)(=O)c1ccc(C)cc1)OCCCC (configuration not stated) | > 1000 nM | 348 nM | – |
| CCCCOP(=O)(CC(CCc1ccccc1)OC(=O)c1ccccc1)OCCCC (configuration not stated) | > 1000 nM | 662 nM | – |
| CCCCOP(=O)(CC(CCc1ccccc1)OP(=O)(OCCCC)OCCCC)OCCCC (configuration not stated) | 385 nM | 76 nM | – |
| CCCCOP(=O)(CC(CCc1ccccc1)OC(=O)C1CC1)OCCCC (configuration not stated) | > 1000 nM | 628 nM | – |
| CCCCOC(=O)OC(CCc1ccccc1)CP(=O)(OCCCC)OCCCC (configuration not stated) | > 1000 nM | 255 nM | – |
| CCCCCC(=O)OC(CCCc1ccccc1)CP(=O)(OCCCC)OCCCC (configuration not stated) | > 1000 nM | > 1000 nM | – |
| CCCCOP(=O)(CC(CCc1ccccc1)OS(C)(=O)=O)OCCCC (configuration not stated) | – | > 1000 nM | > 1000 nM |
| CCCCOP(=O)(CC(CCc1ccccc1)OC(C)=O)OCCCC (configuration not stated) | 55 nM | 25 nM | – |
| CCCCOP(=O)(CC(CCc1ccccc1)OC(=O)C(F)(F)F)OCCCC (configuration not stated) | > 1000 nM | > 1000 nM | – |
| CCCCOP(=O)(CC(CCOc1ccccc1)CP(=O)(OCCCC)OCCCC)OCCCC [BELFOSDIL] | 23 nM | 0.5 nM | – |
| CCOP(=O)(Cc1ccc(-c2nc3ccccc3s2)cc1)OCC [FOSTEDIL] | – | > 1000 nM | – |
| COC(=O)C1=C(C)NC(C)=C(C(=O)OC)C1c1ccccc1[N+](=O)[O-] [NIFEDIPINE] | 0.53 nM | 0.5 nM | – |
